ChEMBL document CHEMBL3046879, “Synthesis, antimicrobial evaluation, and QSAR analysis of 2-isopropyl-5-methylcyclohexanol derivatives” (Med Chem Res, 2012)

Assays:
Staphylococcus aureus = test: Antimicrobial activity against Staphylococcus aureus MTCC 1430 after 24 hr by serial dilution method; assay type: functional
Aspergillus niger = test: Antimicrobial activity against Aspergillus niger MTCC 2425 after 7 days by serial dilution method; assay type: functional
Candida albicans = test: Antimicrobial activity against Candida albicans MTCC 227 after 2 days by serial dilution method; assay type: functional
[1] = Octanol-water partition coefficient, log P of the compound; assay type: physicochemical
Escherichia coli = test: Antimicrobial activity against Escherichia coli MTCC 739 after 24 hr by serial dilution method; assay type: functional
Bacillus subtilis = test: Antimicrobial activity against Bacillus subtilis MTCC 2423 after 24 hr by serial dilution method; assay type: functional

In the case of `COc1ccccc1C(=O)O[C@@H]1C[C@H](C)CC[C@H]1C(C)C`, the “-logMIC” value (Staphylococcus aureus) is reported as 2.06, the “-logMIC” value (Aspergillus niger) is reported as 2.07 and the “-logMIC” value (Candida albicans) is reported as 1.97. The logP [1] was 4.57, the “-logMIC” value (Escherichia coli) was 1.97 and the “-logMIC” value (Bacillus subtilis) was 1.98.

In the case of `CC(Cl)C(=O)O[C@@H]1C[C@H](C)CC[C@H]1C(C)C` (stereo partly specified), the “-logMIC” value (Staphylococcus aureus) is reported as 1.6, the “-logMIC” value (Aspergillus niger) is reported as 1.9 and the “-logMIC” value (Candida albicans) is reported as 1.9. For the same molecule, the logP [1] was 4.04, the “-logMIC” value (Escherichia coli) was 1.9 and the “-logMIC” value (Bacillus subtilis) was 1.9.

In the case of `CC(C)[C@@H]1CC[C@@H](C)C[C@H]1OC(=O)CCl`, the “-logMIC” value (Staphylococcus aureus) is reported as 2, the “-logMIC” value (Aspergillus niger) is reported as 2.17 and the “-logMIC” value (Candida albicans) is reported as 1.87. The logP [1] was 3.5, the “-logMIC” value (Escherichia coli) was 1.79 and the “-logMIC” value (Bacillus subtilis) was 1.86.

In the case of `CCC(=O)O[C@@H]1C[C@H](C)CC[C@H]1C(C)C`, the “-logMIC” value (Staphylococcus aureus) is reported as 1.75, the “-logMIC” value (Aspergillus niger) is reported as 2.13 and the “-logMIC” value (Candida albicans) is reported as 1.83. The logP [1] was 3.54, the “-logMIC” value (Escherichia coli) was 1.75 and the “-logMIC” value (Bacillus subtilis) was 1.88.

With `CC(=O)O[C@@H]1C[C@H](C)CC[C@H]1C(C)C` the “-logMIC” value (Staphylococcus aureus) was 1.5, the “-logMIC” value (Aspergillus niger) was 1.98 and the “-logMIC” value (Candida albicans) was 1.8. For the same molecule, the logP [1] was 2.91, the “-logMIC” value (Escherichia coli) was 1.5 and the “-logMIC” value (Bacillus subtilis) was 1.8.

With `CC(C)[C@@H]1CC[C@@H](C)C[C@H]1OC(=O)/C=C/c1ccc([N+](=O)[O-])cc1` the “-logMIC” value (Staphylococcus aureus) was 2.03, the “-logMIC” value (Aspergillus niger) was 2.18 and the “-logMIC” value (Candida albicans) was 2.33. For the same molecule, the logP [1] was 5.18, the “-logMIC” value (Escherichia coli) was 2.33 and the “-logMIC” value (Bacillus subtilis) was 2.33.

With `CC(C)[C@@H]1CC[C@@H](C)C[C@H]1OC(=O)/C=C/c1cccc([N+](=O)[O-])c1` the “-logMIC” value (Staphylococcus aureus) was 2.33, the “-logMIC” value (Aspergillus niger) was 2.33 and the “-logMIC” value (Candida albicans) was 2.33. The logP [1] was 5.18, the “-logMIC” value (Escherichia coli) was 2.14 and the “-logMIC” value (Bacillus subtilis) was 2.03.

With `CC(C)[C@@H]1CC[C@@H](C)C[C@H]1OC(=O)/C=C/c1ccccc1[N+](=O)[O-]` the “-logMIC” value (Staphylococcus aureus) was 2.33, the “-logMIC” value (Aspergillus niger) was 2.33 and the “-logMIC” value (Candida albicans) was 2.33. For the same molecule, the logP [1] was 5.18, the “-logMIC” value (Escherichia coli) was 2.33 and the “-logMIC” value (Bacillus subtilis) was 2.03.

With `CC(C)[C@@H]1CC[C@@H](C)C[C@H]1OC(=O)/C=C/c1ccccc1` the “-logMIC” value (Staphylococcus aureus) was 1.96, the “-logMIC” value (Aspergillus niger) was 2.01 and the “-logMIC” value (Candida albicans) was 1.96. The logP [1] was 5.23, the “-logMIC” value (Escherichia coli) was 1.96 and the “-logMIC” value (Bacillus subtilis) was 2.26.

For `Cc1cccc(C(=O)O[C@@H]2C[C@H](C)CC[C@H]2C(C)C)c1`, the “-logMIC” value (Staphylococcus aureus) was 2.05, the “-logMIC” value (Aspergillus niger) was 2.03 and the “-logMIC” value (Candida albicans) was 1.94. The logP [1] was 5.29, the “-logMIC” value (Escherichia coli) was 1.93 and the “-logMIC” value (Bacillus subtilis) was 2.02.

In the case of `Cc1ccc(C(=O)O[C@@H]2C[C@H](C)CC[C@H]2C(C)C)cc1`, the “-logMIC” value (Staphylococcus aureus) is reported as 1.85, the “-logMIC” value (Aspergillus niger) is reported as 2.04 and the “-logMIC” value (Candida albicans) is reported as 1.94. The logP [1] was 5.29, the “-logMIC” value (Escherichia coli) was 1.9 and the “-logMIC” value (Bacillus subtilis) was 2.1.

In the case of `Cc1ccccc1C(=O)O[C@@H]1C[C@H](C)CC[C@H]1C(C)C`, the “-logMIC” value (Staphylococcus aureus) is reported as 1.94, the “-logMIC” value (Aspergillus niger) is reported as 1.94 and the “-logMIC” value (Candida albicans) is reported as 1.64. The logP [1] was 5.29, the “-logMIC” value (Escherichia coli) was 2.01 and the “-logMIC” value (Bacillus subtilis) was 1.94.

For `COc1ccc(C(=O)O[C@@H]2C[C@H](C)CC[C@H]2C(C)C)cc1`, the “-logMIC” value (Staphylococcus aureus) was 2.01, the “-logMIC” value (Aspergillus niger) was 2.04 and the “-logMIC” value (Candida albicans) was 1.67. The logP [1] was 4.57, the “-logMIC” value (Escherichia coli) was 1.98 and the “-logMIC” value (Bacillus subtilis) was 2.01.

With `COc1cccc(C(=O)O[C@@H]2C[C@H](C)CC[C@H]2C(C)C)c1` the “-logMIC” value (Staphylococcus aureus) was 1.97, the “-logMIC” value (Aspergillus niger) was 2.11 and the “-logMIC” value (Candida albicans) was 1.97. The logP [1] was 4.57, the “-logMIC” value (Escherichia coli) was 1.97 and the “-logMIC” value (Bacillus subtilis) was 1.99.

In the case of `CC(C)[C@@H]1CC[C@@H](C)C[C@H]1OC(=O)c1ccc([N+](=O)[O-])cc1[N+](=O)[O-]`, the “-logMIC” value (Staphylococcus aureus) is reported as 2.35, the “-logMIC” value (Aspergillus niger) is reported as 2.05 and the “-logMIC” value (Candida albicans) is reported as 2.05. The logP [1] was 4.73, the “-logMIC” value (Escherichia coli) was 2.35 and the “-logMIC” value (Bacillus subtilis) was 2.05.

With `CC(C)[C@@H]1CC[C@@H](C)C[C@H]1OC(=O)c1ccc([N+](=O)[O-])cc1` the “-logMIC” value (Staphylococcus aureus) was 2.29, the “-logMIC” value (Aspergillus niger) was 2.18 and the “-logMIC” value (Candida albicans) was 2.29. The logP [1] was 4.78, the “-logMIC” value (Escherichia coli) was 1.99 and the “-logMIC” value (Bacillus subtilis) was 2.02.

With `CC(C)[C@@H]1CC[C@@H](C)C[C@H]1OC(=O)c1cccc([N+](=O)[O-])c1` the “-logMIC” value (Staphylococcus aureus) was 2.29, the “-logMIC” value (Aspergillus niger) was 2.29 and the “-logMIC” value (Candida albicans) was 2.33. For the same molecule, the logP [1] was 4.78, the “-logMIC” value (Escherichia coli) was 2.29 and the “-logMIC” value (Bacillus subtilis) was 1.99.

For `CC(C)[C@@H]1CC[C@@H](C)C[C@H]1OC(=O)c1ccc(Cl)cc1Cl`, the “-logMIC” value (Staphylococcus aureus) was 2.02, the “-logMIC” value (Aspergillus niger) was 1.95 and the “-logMIC” value (Candida albicans) was 1.72. The logP [1] was 5.86, the “-logMIC” value (Escherichia coli) was 2.02 and the “-logMIC” value (Bacillus subtilis) was 1.96.

For `CC(C)[C@@H]1CC[C@@H](C)C[C@H]1OC(=O)c1ccccc1[N+](=O)[O-]`, the “-logMIC” value (Staphylococcus aureus) was 1.99, the “-logMIC” value (Aspergillus niger) was 2.17 and the “-logMIC” value (Candida albicans) was 2.29. For the same molecule, the logP [1] was 4.78, the “-logMIC” value (Escherichia coli) was 2.29 and the “-logMIC” value (Bacillus subtilis) was 2.03.

For `CC(C)[C@@H]1CC[C@@H](C)C[C@H]1OC(=O)c1ccc(Cl)cc1`, the “-logMIC” value (Staphylococcus aureus) was 1.88, the “-logMIC” value (Aspergillus niger) was 2.05 and the “-logMIC” value (Candida albicans) was 1.67. The logP [1] was 5.34, the “-logMIC” value (Escherichia coli) was 1.67 and the “-logMIC” value (Bacillus subtilis) was 1.97.

With `CC(C)[C@@H]1CC[C@@H](C)C[C@H]1OC(=O)c1cccc(Cl)c1` the “-logMIC” value (Staphylococcus aureus) was 1.97, the “-logMIC” value (Aspergillus niger) was 1.97 and the “-logMIC” value (Candida albicans) was 1.97. The logP [1] was 5.34, the “-logMIC” value (Escherichia coli) was 1.88 and the “-logMIC” value (Bacillus subtilis) was 1.97.

In the case of `CC(C)[C@@H]1CC[C@@H](C)C[C@H]1OC(=O)c1ccc(Br)cc1`, the “-logMIC” value (Staphylococcus aureus) is reported as 1.98, the “-logMIC” value (Aspergillus niger) is reported as 2.04 and the “-logMIC” value (Candida albicans) is reported as 1.85. For the same molecule, the logP [1] was 5.61, the “-logMIC” value (Escherichia coli) was 2.02 and the “-logMIC” value (Bacillus subtilis) was 2.04.

For `CC(C)[C@@H]1CC[C@@H](C)C[C@H]1OC(=O)c1ccccc1Cl`, the “-logMIC” value (Staphylococcus aureus) was 1.97, the “-logMIC” value (Aspergillus niger) was 2.1 and the “-logMIC” value (Candida albicans) was 1.97. The logP [1] was 5.34, the “-logMIC” value (Escherichia coli) was 2.1 and the “-logMIC” value (Bacillus subtilis) was 1.91.

With `CC(C)[C@@H]1CC[C@@H](C)C[C@H]1OC(=O)c1cccc(Br)c1` the “-logMIC” value (Staphylococcus aureus) was 1.96, the “-logMIC” value (Aspergillus niger) was 2.04 and the “-logMIC” value (Candida albicans) was 2.04. For the same molecule, the logP [1] was 5.61, the “-logMIC” value (Escherichia coli) was 1.88 and the “-logMIC” value (Bacillus subtilis) was 1.96.

For `CC(C)[C@@H]1CC[C@@H](C)C[C@H]1OC(=O)c1ccccc1Br`, the “-logMIC” value (Staphylococcus aureus) was 2.04, the “-logMIC” value (Aspergillus niger) was 2.04 and the “-logMIC” value (Candida albicans) was 2.04. The logP [1] was 5.61, the “-logMIC” value (Escherichia coli) was 1.98 and the “-logMIC” value (Bacillus subtilis) was 2.04.

With `OC(Cn1cncn1)(Cn1cncn1)c1ccc(F)cc1F` [FLUCONAZOLE] the “-logMIC” value (Aspergillus niger) was 2.64 and the “-logMIC” value (Candida albicans) was 2.64.

For `CC(C)[C@@H]1CC[C@@H](C)C[C@H]1OC(=O)c1ccccc1` [MENTHYL BENZOATE], the “-logMIC” value (Staphylococcus aureus) was 1.92, the “-logMIC” value (Aspergillus niger) was 1.92 and the “-logMIC” value (Candida albicans) was 1.92. For the same molecule, the logP [1] was 4.82, the “-logMIC” value (Escherichia coli) was 2.01 and the “-logMIC” value (Bacillus subtilis) was 2.01.

For `CCn1cc(C(=O)O)c(=O)c2cc(F)c(N3CCNCC3)cc21` [NORFLOXACIN], the “-logMIC” value (Staphylococcus aureus) was 2.61, the “-logMIC” value (Escherichia coli) was 2.61 and the “-logMIC” value (Bacillus subtilis) was 2.61.
